Results as given in paper PMC10062609 (PLOS ONE, 2023).
pEC50: −log10 of the molar value.

Target: Nicotinamide phosphoribosyltransferase (NAMPT) (Homo sapiens, UniProt P43490)
Assay: biochemical

Chain of Nicotinamide phosphoribosyltransferase (NAMPT) (P43490 whole entry): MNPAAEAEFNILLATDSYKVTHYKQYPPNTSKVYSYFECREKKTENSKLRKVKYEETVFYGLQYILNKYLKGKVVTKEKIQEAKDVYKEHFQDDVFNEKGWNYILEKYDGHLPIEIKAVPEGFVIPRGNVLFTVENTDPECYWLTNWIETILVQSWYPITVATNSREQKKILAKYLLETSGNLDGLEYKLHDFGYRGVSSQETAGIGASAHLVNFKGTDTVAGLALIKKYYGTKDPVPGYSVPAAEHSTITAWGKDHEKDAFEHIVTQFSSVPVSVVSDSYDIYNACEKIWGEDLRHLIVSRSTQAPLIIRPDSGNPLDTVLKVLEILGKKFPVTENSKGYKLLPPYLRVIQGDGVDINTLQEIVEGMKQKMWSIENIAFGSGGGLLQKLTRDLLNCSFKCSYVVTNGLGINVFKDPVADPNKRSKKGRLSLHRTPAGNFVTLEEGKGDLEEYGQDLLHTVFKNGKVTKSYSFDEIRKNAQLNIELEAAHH

Row | pEC50 | SMILES
1 | 5.21 | C[C@@H]1O[C@@H](Oc2c(-c3cc(O)c(O)c(O)c3)oc3cc(O)cc(O)c3c2=O)[C@H](O)[C@H](O)[C@H]1O [compound 2, Myricitrin]
2 | 5.45 | O=c1cc2oc3cc(O)c(O)cc3c(-c3ccccc3O)c-2cc1O [compound 20, NSC9037]
